Measurements reported in patent US5079235A, “Antiviral compounds” (Burroughs Wellcome Co., priority 1986, dated 1992).

Legend:
vaccinia = settings: in vitro; cited from earlier work
herpes simplex = settings: in vitro; cited from earlier work
[1] = system: Human cytomegalovirus (HCMV); assay: Human cytomegalovirus (HCMV) plaque reduction assay in MRC5 or Detroit 532 cells; type: cell-based; settings: for IC50: Human betaherpesvirus 5, HCMV, MRC5 or Detroit 532 cells, plaque reduction
Method: Human cytomegalovirus (HCMV) is assayed in monolayers of either MRC5 cells (human embryonic lung) or Detroit 532 cells (human foreskin fibroblasts) in multiwell trays. Activity of compounds is determined in the plaque reduction assay, in which a cell monolayer is infected with a suspension of HCMV, and then overlaid with nutrient agarose in the form of a gel to ensure that there is no spread of virus throughout the culture. A range of concentrations of compound of known molarity was incorporated in the nutrient agarose overlay. Plaque numbers of each concentration are expressed as percentage of the control and a dose-response curve is drawn. From this curve the 50% inhibitory concentration (IC50) is estimated.

[2] = system: Varicella zoster virus (VZV); assay: Varicella zoster virus (VZV) assayed in MRC5 cells, plaque reduction method without agarose overlay; type: cell-based; settings: for IC50: Human alphaherpesvirus 3, MRC5 cells
[3] = Cell toxicity in Vero cell growth inhibition assay (MTT); type: cell-based; settings: monkey; Vero cells, 50% inhibition of cell viability (MTT) at 96 hours; read-out: CCID50 at 96 hr
Method: Cell toxicity is assessed in a cell growth inhibition assay. Subconfluent cultures of Vero cells grown on 96-well microtiter dishes are exposed to different dilutions of drug, and cell viability determined daily on replicate cultures using uptake of a tetrazolium dye (MTT). The concentration required for a 50% inhibition of cell viability at 96 hours is termed CCID50.

SMILES | antiviral activity against vaccinia (in words) (vaccinia) | antiviral activity against herpes simplex (in words) (herpes simplex) | activity against CMV (in words) ([1]; CMV) | anti-VZV activity (in words) [2] | IC50 [2] | IC50 [1] | CC50 at 96 h [3]
C#Cc1cn([C@H]2C[C@H](O)[C@@H](CO)O2)c(=O)[nH]c1=O [2'-deoxy-5-ethynyluridine] | did not demonstrate any effect of use in human medicinal chemotherapy | did not demonstrate any effect of use in human medicinal chemotherapy | – | – | – | – | –
C#Cc1cn([C@H]2C[C@H](O)[C@@H](CO)O2)c(=O)n(C(=O)c2ccccc2)c1=O [Example 1, 3-N-Benzoyl-2'-deoxy-5-ethynyluridine] | – | – | high activity against CMV | – | – | – | –
CC#Cc1cn([C@H]2C[C@H](O)[C@@H](CO)O2)c(=O)nc1N [Example 2, 2'-Deoxy-5-propynylcytidine] | – | – | – | potent anti-VZV activity | 3.3 µM | > 20 µM | > 300 µM
CC#Cc1cn([C@H]2C[C@H](O)[C@@H](CO)O2)c(=O)n(C(=O)c2ccccc2)c1=O [Example 4, 3-N-Benzoyl-2'-deoxy-5-propynyluridine] | – | – | – | potent anti-VZV activity | 2.2 µM | 28.5 µM | > 500 µM
